These results are taken from patent US20230414625A1, “Combination Antibacterial Composition and Short-Course Antibacterial Regimen” (The Global Alliance for TB Drug Development, Inc., priority 2015, published 2023).

Read-outs that look alike come from different tables or passages of the source.

For series [1], the system named is Mycobacterium tuberculosis H37Rv. It is filed as in vivo.
Series [2] deals with Gram-positive and Gram-negative bacteria. The conditions noted are these: cited from earlier work.
The test system of another series is cytochrome P450. Particulars: cited from earlier work.
Series [3] can be described thus: Pharmacokinetics of oxazolidinones after single oral dose, plasma LC/MS. The format is in vivo, BALB/c mice. The method, then:
Pharmacokinetics of oxazolidinones. Uninfected female BALB/c mice weighing approximately 20 g received single doses of SZD (50 mg/kg), LZD (100 mg/kg), TZD (10 or 20 mg/kg) or AZD (50 or 200 mg/kg). Three mice per dose per time point were sampled by cardiac puncture at 0.5, 1, 2, 4, 8 and 24 hours post-dose (plus an additional 16 hour time point for AZD). Plasma drug concentrations were quantified by a validated LC/MS method performed at AstraZeneca (for AZD only) (14) or Rutgers New Jersey Medical School (for other oxazolidinones). Standards for the different oxazolidinones were provided by the sponsors. At Rutgers, analytes of interest were extracted by combining 20 μl of mouse plasma with 20 μl of acetonitrole:water (1:1), and 180 μl of methanol:acetonitrile (1:1) containing 10 mg/ml of verapamil (Sigma-Aldrich) as internal standard. The mixture was vortexed and centrifuged, and 100 μL of the supernatant was recovered and combined with 10 μL of water for analysis. LC/MS-MS analysis was performed with an Agilent 1260 LC-system coupled to an AB Sciex 4000 Q-trap Mass Spectrometer (positive mode, electrospray ionization), and an Agilent column SB-C8, 2.1×30 mm, 3.5 μm, with the column temperature fixed at 24° C. Mobile phase A was 0.1% formic acid in 100% H2O and mobile phase B was 0.1% formic acid in 100% acetonitrile. Injection volumes were routinely 2 μl. The Mass Selective Detector was set to MRM (multiple reaction monitoring) mode using positive polarity ionization, monitoring for the ions of interest SZD (m/z 354.12/312.04), SZD-M1(370.13/238.12), LZD(338.00/235.00), and TZD(371.12/343.00) and the internal standard (m/z 455.4/165.2). The lower limit of quantification for all oxazolidinones was […]. PK parameters were determined by non-compartmental analysis using WinNonlin 6.4 (Certara, Princeton, NJ).

The mark [4] stands for this setting: Example 1, lung, 1 month of treatment, D0 count 6.17±0.27, PMD 50 mg/kg, LZD 100 mg/kg, SZD 50 mg/kg.
[5] abbreviates: female, BALB/c, mouse, in vivo, single oral dose 50 mg/kg, mean, plasma, read-out: AUC0-24 hr.
Setting [6] is: female, BALB/c, mouse, in vivo, single oral dose 50 mg/kg, mean, plasma, read-out: Cmax.
Setting [7] is: female, BALB/c, mouse, in vivo, single oral dose 50 mg/kg, mean, plasma, read-out: Tmax.
[8] abbreviates: female, BALB/c, mouse, in vivo, single oral dose 50 mg/kg, mean, plasma, read-out: t1/2 (converted).
The mark [9] stands for this setting: female, BALB/c, mouse, in vivo, po, 100 mg/kg.
Where [10] appears, read: M1 metabolite after single oral dose of sutezolid 50 mg/kg, mean, plasma.
Where [11] appears, read: female, BALB/c, mouse, in vivo, po, 10 mg/kg.
[12] abbreviates: female, BALB/c, mouse, in vivo, po, 20 mg/kg.

Regarding `O=[N+]([O-])c1cn2c(n1)OCC(OCc1ccc(OC(F)(F)F)cc1)C2` (stereo in doubt) [PMD, (6S)-2-nitro-6-{[4-(trifluoromethoxy)benzyl]oxy}-6,7-dihydro-5H-imidazo[2,1-b][1,3]oxazine], in series [1] (setting [4]), the “Mean (±SD) log10 CFU count at M1” value was found to be 4.57 ± 0.22 log10 CFU. Besides, the “activity against a broad range of Gram-positive and Gram-negative bacteria” value in series [2] is recorded as “no significant activity”. In addition, the “cytochrome P450 interactions” value with cytochrome P450 is reported as “no significant cytochrome P450 interactions”.

In general, Cmax refers to the peak of the concentration-time curve. One may read the Tmax as the time from dosing to the highest level. On to `O=C([C@@H](O)CO)N1CC=C(c2c(F)cc(N3C[C@H](COc4ccon4)OC3=O)cc2F)CC1` [AZD], for which the “predicted AUC0-24 h” value in series [3] (125 mg/kg dose, interpolated between the 50 and 200 mg/kg doses) was 160000 to 190000 ng·h/mL. In addition, the AUC(0-t) in series [3] (setting [5]) turned out to be 74800 ng·h/mL; in series [3] (female, BALB/c, mouse, in vivo, single oral dose 200 mg/kg, mean, plasma, read-out: AUC0-24 hr), 220000 ng·h/mL. Moreover, the Cmax in series [3] (setting [6]) was found to be 20400 ng/mL; in series [3] (female, BALB/c, mouse, in vivo, single oral dose 200 mg/kg, mean, plasma, read-out: Cmax), 31400 ng/mL. The Tmax in series [3] (setting [7]) came out at 42 min; in series [3] (female, BALB/c, mouse, in vivo, single oral dose 200 mg/kg, mean, plasma, read-out: Tmax), 42 min. Also, the half-life in series [3] (setting [8]) is 144 min; in series [3] (female, BALB/c, mouse, in vivo, single oral dose 200 mg/kg, mean, plasma, read-out: t1/2 (converted)), 516 min.

Regarding `COc1nc2ccc(Br)cc2cc1[C@@H](c1ccccc1)[C@@](O)(CCN(C)C)c1cccc2ccccc12` [BDQ, (1R, 2S)-1-(6-bromo-2methoxy-3-quinolinyl)-4-(dimethylamino)-2-(1-naphthalenyl)-1-phenyl-2-butanol compound with fumaric acid (1:1)], the “Mean (±SD) log10 CFU count at M1” value in series [1] (setting [4]) was 3.24 ± 0.25 log10 CFU.

With `CC(=O)NC[C@H]1CN(c2ccc(N3CCOCC3)c(F)c2)C(=O)O1` [LZD, (S)—N-[[3-[3-Fluoro-4-(4morpholinyl)phenyl]-2-oxo-5-oxazolidinyl]methyl]-acetamide], the “Mean (±SD) log10 CFU count at M1” value in series [1] (in vivo) amounted to 4.97 ± 0.26 log10 CFU. Moreover, in series [3] (setting [9]), the maximum concentration (Cmax) was determined as 81900 ng/mL and the Tmax came to 30 min. This compound also showed an AUC(0-t) in series [3] (female, BALB/c, mouse, in vivo, po, 100 mg/kg, AUC0-24 h) of 244000 ng·h/mL. Also, the AUC(0-t) in series [3] (female, BALB/c, mouse, in vivo, po, 100 mg/kg, AUC0-24 hr) came out at 244000 ng·h/mL. In series [3] (female, BALB/c, mouse, single oral dose 100 mg/kg, mean, plasma, read-out: t1/2 (converted)), the half-life is 180 min.

In the case of `CC(=O)NC[C@H]1CN(c2ccc(N3CCSCC3)c(F)c2)C(=O)O1` [SZD, sutezolid], the “Mean (±SD) log10 CFU count at M1” value in series [1] (setting [4]) is 3.85 ± 0.37 log10 CFU. For the same compound, the AUC(0-t) in series [3] (setting [5]) came out at 3360 ng·h/mL. Also, the maximum concentration (Cmax) in series [3] (setting [6]) amounted to 1290 ng/mL. Besides, the Tmax in series [3] (setting [7]) worked out at 30 min. Besides, the half-life in series [3] (setting [8]) was 168 min.

As for `CC(=O)NC[C@H]1CN(c2ccc(N3CC[S+]([O-])CC3)c(F)c2)C(=O)O1` [Sutezolid M1], in series [3] (setting [10]), the AUC0-24 hr is 31945 ng·h/mL, the Cmax was 15233 ng/mL and the time to peak (Tmax) turned out to be 30 min. Moreover, in series [3] (after oral SZD 50 mg/kg), the “Cmax relative to SZD parent” value was “approximately 10 times” and the “mean AUC0-24 h relative to SZD parent” value was “approximately 10 times”.

`Cn1nnc(-c2ccc(-c3ccc(N4C[C@H](CO)OC4=O)cc3F)cn2)n1` [TZD, tedizolid]: the AUC(0-t) in series [3] (female, BALB/c, mouse, in vivo, 10 mg/kg, total drug AUC0-24 h) turned out to be 40000 ng·h/mL; in series [3] (female, BALB/c, mouse, in vivo, po, 10 mg/kg, AUC0-24 hr), 40400 ng·h/mL; in series [3] (female, BALB/c, mouse, in vivo, po, 20 mg/kg, AUC0-24 hr), 77700 ng·h/mL. Moreover, the Cmax in series [3] (setting [11]) worked out at 6420 ng/mL; in series [3] (setting [12]), 11400 ng/mL. Besides, the Tmax in series [3] (setting [11]) came to 42 min; in series [3] (setting [12]), 30 min. The results for the half-life in series [3] (setting [11]) and in series [3] (setting [12]) were 180 min and 234 min, respectively.
